This note sets out measurements from article PMC12267056 (Nature, 2025).

Values joined by “and” are separate entries in the source; they are usually repeats but may differ in a detail not shown here. Equal entries are not always repeated.

Common to all, as to set-up: made in house; host or cells: Saccharomyces cerevisiae FGY217
In assay [1] the target is T1, human SLC35B1 (wild type) (Homo sapiens, UniProt P78383).
T1 sequence (P78383 1-322): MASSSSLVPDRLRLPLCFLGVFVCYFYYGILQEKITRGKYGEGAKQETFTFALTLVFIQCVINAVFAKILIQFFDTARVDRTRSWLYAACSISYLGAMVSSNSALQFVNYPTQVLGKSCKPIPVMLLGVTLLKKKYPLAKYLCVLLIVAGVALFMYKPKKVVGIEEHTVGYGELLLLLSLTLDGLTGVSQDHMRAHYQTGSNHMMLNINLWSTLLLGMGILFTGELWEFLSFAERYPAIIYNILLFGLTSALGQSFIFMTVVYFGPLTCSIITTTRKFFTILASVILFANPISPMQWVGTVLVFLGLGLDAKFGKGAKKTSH
Nature of the assay: IC50 for competitive inhibition of [3H]ADP uptake in proteoliposomes. It counts as biochemical.

Assay [2] addresses T1, human SLC35B1 (wild type). Nature of the assay: Uptake of [3H]ATP or [3H]ADP into nucleotide-preloaded SLC35B1 proteoliposomes. It counts as biochemical. The settings on record: for radiolabelled nucleotide uptake into proteoliposomes preloaded with the named nucleotide (individual replicates; ATP-loaded about 100): 2 minutes, sheet ED 6G, internal (preloaded) nucleotide as labelled; for [3H]ADP import with nucleotide preloading, relative to ATP preloading: liposomes preloaded with 1 mM nucleotide; for Single time point (1 min) uptake of [3H]-ADP by proteoliposomes preloaded with the nucleotide: preload 1 mM of the labelled nucleotide.

For assay [3], the target named is T1, human SLC35B1 (wild type). Description: Competitive uptake assay: [3H]ADP uptake with 1 mM cold nucleotide. The format is biochemical. The settings on record: for Normalized SLC35B1-mediated uptake of [3H]ADP in competition with cold nucleotide: 1 mM external cold nucleotide, proteoliposomes preloaded with 1 mM ATP; for [3H]ADP uptake in the presence of cold competitor nucleotide (individual replicates; no-competitor control about 100): competitor 1mM, sheet ED 6F, SLC35B1 proteoliposomes.

The target in assay [4] is T1, human SLC35B1 (wild type). Description: STD NMR of nucleotide interaction with SLC35B1 proteoliposomes. It counts as binding. The settings on record: for Total STD amplification factor (STD NMR signal): 500 μM substrate.
Assay [5] has as its target T1, human SLC35B1 (wild type). It counts as binding. The settings on record: 1 mM nucleotide; wild-type SLC35B1–GFP.

As to `O=c1ccn([C@@H]2O[C@H](CO[P@@](=O)(O)O[P@@](=O)(O)OP(=O)(O)O)[C@@H](O)[C@H]2O)c(=O)[nH]1` (stereo in doubt) [UTP, uridine triphosphate], the “Normalized [3H]-ADP uptake activity (IC50 curve)” value (shortened to “Normalized … (IC50 curve)”) is 98.9492 and 98.9864 in assay [1] (external cold nucleotide 0.1 uM, 0.1 µM); 96.2847 and 99.2915 in assay [1] (external cold nucleotide 1 uM, 1 µM); 69.0203 and 73.0881 in assay [1] (external cold nucleotide 10 uM, 10 µM); 29.139 and 27.9119 in assay [1] (external cold nucleotide 100 uM, 100 µM). For the same compound, the activity at 0.1 µM in assay [1] (external cold nucleotide 0.1 uM, read-out: Normalized [3H]-ADP uptake activity (IC50 curve)) worked out at 102%. Moreover, the activity at 1 µM in assay [1] (external cold nucleotide 1 uM, read-out: Normalized [3H]-ADP uptake activity (IC50 curve)) stood at 90.8%. In addition, the activity at 10 µM in assay [1] (external cold nucleotide 10 uM, read-out: Normalized [3H]-ADP uptake activity (IC50 curve)) is 65%. In addition, in assay [1] (external cold nucleotide 100 uM, read-out: Normalized [3H]-ADP uptake activity (IC50 curve)), the activity at 100 µM turned out to be 28.6%. For the same compound, the “radiolabelled nucleotide uptake into proteoliposomes preloaded with the named nucleotide (individual replicates; ATP-loaded about 100)” value in assay [2] was 26.76 and 31.4277 and 36.8954 and 31.1375 and 33.6917 and 28.9625. Also, in assay [2], the “[3H]ADP import with nucleotide preloading, relative to ATP preloading” value is given as “approximately 30%”. In addition, the “Normalized SLC35B1-mediated uptake of [3H]ADP in competition with cold nucleotide” value in assay [3] is on record as “strong competition”. Besides, in assay [3], the “[3H]ADP uptake in the presence of cold competitor nucleotide (individual replicates; no-competitor control about 100)” value is 11.6037 and 12.7556 and 12.0037 and 16.836 and 18.152 and 16.556.
Turning to `Nc1ncnc2c1ncn2[C@@H]1O[C@H](COP(=O)(O)OP(=O)(O)NP(=O)(O)O)[C@@H](O)[C@H]1O` [AMP–PNP, adenylyl imidodiphosphate], the “1H integral (off-resonance spectrum)” value in assay [4] was found to be 2.67E+09. In assay [4], the STD integral is on record as 3.83E+08. Further, the “Total STD amplification factor (STD NMR signal)” value in assay [4] is recorded as “equivalent”; in assay [4] (listed as AMP-PNP) it was 7.167. Moreover, the “Normalized … (IC50 curve)” value was 99.81 and 108.605 and 100.75 and 104.879 and 96.5643 and 94.0286 in assay [1] (external cold nucleotide 0.01 uM, listed as ANP-PNP); 114.525 and 102.005 and 84.315 and 93.8643 and 84.5 and 91.8286 in assay [1] (external cold nucleotide 0.1 uM, listed as ANP-PNP); 100.22 and 103.765 and 80.9 and 74.0571 and 74.9429 in assay [1] (external cold nucleotide 1 uM, listed as ANP-PNP). The “Single time point (1 min) uptake of [3H]-ADP by proteoliposomes preloaded with the nucleotide” value in assay [2] was “equivalent”; in assay [2] (listed as AMP-PNP), 7.11 and 6.164 and 6.553.
For orientation: IC50 means the concentration that gives 50% inhibition. Low readings indicate greater potency in that assay, high ones weaker potency in that assay. In the case of `Nc1ccn([C@@H]2O[C@H](COP(=O)(O)OP(=O)(O)OP(=O)(O)O)[C@@H](O)[C@H]2O)c(=O)n1` [CTP, cytidine triphosphate], the “ΔTm, individual titrations (source data)” value in assay [5] was 2.66 and 3.39 and 2.37. Further, the “Normalized … (IC50 curve)” value in assay [1] (external cold nucleotide 0.1 uM) was 103.844 and 97.7104 and 98.4453; in assay [1] (external cold nucleotide 1 uM), 95.8764 and 97.0509 and 95.3887; in assay [1] (external cold nucleotide 10 uM), 67.7481 and 70.5094 and 62.095; in assay [1] (external cold nucleotide 100 uM), 15.0773 and 20.2633 and 19.2811. For the same compound, the IC50 in assay [1] (wild-type SLC35B1 proteoliposomes) was 21 µM. Also, in assay [2], the “radiolabelled nucleotide uptake into proteoliposomes preloaded with the named nucleotide (individual replicates; ATP-loaded about 100)” value is 34.7169 and 32.8215 and 35.0431 and 28.1 and 30.3083 and 22.2. Also, in assay [2], the “[3H]ADP import with nucleotide preloading, relative to ATP preloading” value is listed as “approximately 30%”. Moreover, in assay [3], the “Normalized SLC35B1-mediated uptake of [3H]ADP in competition with cold nucleotide” value was “strong competition”. The “[3H]ADP uptake in the presence of cold competitor nucleotide (individual replicates; no-competitor control about 100)” value in assay [3] was 12.014 and 11.0419 and 12.1535 and 17.168 and 20.672 and 19.484.
